# Measurements as given in patent US20260216238A1, “TETRATHIOMOLYBDIC ACID FOR USE IN TREATING COPPER METABOLISM-ASSOCIATED DISEASES OR DISORDERS (WILSON DISEASE)” (Alexion Pharmaceuticals, Inc., priority 2023, published 2026).
# Tested on: patients with Wilson disease (WD)
# Experiment: UWDRS Part III total score, functional subscale and individual items (neurological examination)
# Format: in vivo, human
# Details: for UWDRS Part III change from baseline, LSM Diff (TTM vs SoC) / UWDRS Part III change from baseline, Mean / UWDRS Part III change from baseline, Median / UWDRS Part III change from baseline, LSM: patients symptomatic at baseline; for UWDRS Part III change from baseline, LSM: MMRM; for UWDRS Part III (0-175) change from baseline, LSM / UWDRS Part III (0-175) change from baseline, Mean / UWDRS Part III functional subscale (0-10) change from baseline, LSM / UWDRS Part III functional subscale (0-10) change from baseline, Mean / UWDRS Part III-arising from chair (0-4) change from baseline, LSM / UWDRS Part III-arising from chair (0-4) change from baseline, Mean / UWDRS Part III-gait (0-4) change from baseline, LSM / UWDRS Part III-gait (0-4) change from baseline, Mean / UWDRS Part III-handwriting (0-4) change from baseline, LSM / UWDRS Part III-handwriting (0-4) change from baseline, Mean / UWDRS Part III-speech (0-4) change from baseline, LSM / UWDRS Part III-speech (0-4) change from baseline, Mean: Study 301 TTM long term set
# Description: The UWDRS scoring system was developed specifically for the motor and movement disorders associated with chronic copper neurotoxicity in WD. Some individual items/subscales of the UWDRS Part III (arising from a chair, gait, handwriting, and speech) in addition to the UWDRS Parts I, II, and III overall, were assessed to further define the range of burdensome signs and symptoms of WD, so as to further understand the assessment of treatment effects on patients with WD. The UWDRS scores for consciousness (Part I) and abnormal neurologic examination findings (Part III) will be determined by a trained neurologist rater who is blinded to study treatment randomization. These scores were used to provide a rigorous dataset for evaluating changes from baseline.
# Unified Wilson Disease Rating Scale (Parts I, II, and III): The UWDRS is a clinical rating scale designed to evaluate the neurological manifestations of WD that generally can be divided into 3 movement disorder syndromes: dystonic, ataxic, and Parkinsonian syndrome. The UWDRS comprises 3 parts: UWDRS Part I (level of consciousness, item 1), UWDRS Part II (a patient-reported review of daily activity items [disability], items 2 to 11), and UWDRS Part III (a detailed neurological examination, items 12 to 34).
# The UWDRS Part I and Part III were assessed by a neurologist who is blinded to the treatment randomization, while UWDRS Part II may be reported to a non-blinded member of the study team by the patient, family member, or caregiver. The UWDRS has not been formally evaluated in adolescents. However, the components of Part I (level of consciousness), Part II (patient or caregiver-reported disability) and Part III (neurologic examination findings) were not fundamentally different between adults and adolescents. Patients aged 12 years and older were expected to be able to comply with UWDRS assessments.
# Pooled results from all such participants will be integrated together into one timeline to allow analyses of changes in UWDRS, long-term copper control, and long-term safety laboratory data.
# Endpoints (directly measured non-ceruloplasmin-bound copper [dNCC], UWDRS III (rater blinded) total and individual item scores, Clinical Global Impression-Improvement [CGI-I]) were evaluated at baseline (BL) and Week 48 (W48). Normalization (score decrease to 0), improvement (≥1 point decrease), stability (no change), or worsening (≥1 point increase) of total and individual UWDRS III item scores were evaluated at W48.
# [1] = Week 48, Cohort 1, Total (Studies 301, 201, 205), n=127
substance,measurement,setting,value
bis-choline tetrathiomolybdate [TTM],"UWDRS-III, Change from Baseline, Median",[1],−1.00
same,"UWDRS-III, Change from Baseline, Min",[1],"−48.0,"
same,"UWDRS-III, Change from Baseline, Q1",[1],"−6.00,"
same,"UWDRS-III, Change from Baseline, Q3",[1],0.00
same,"UWDRS-III, Change from Baseline, LSM Diff (TTM vs. SoC)","Week 48, Cohort 1, TTM Total vs SoC Study 301, P-value 0.1295",−1.97
same,"UWDRS-III, Change from Baseline, LSM","Week 48, Cohort 1, TTM Total, SoC Study 301",−3.62
same,"UWDRS Part III change from baseline, LSM Diff (TTM vs SoC)","Week 48, Cohort 1",−0.79
same,"UWDRS Part III change from baseline, Mean","Week 48, Cohort 1",−2.86
same,"UWDRS Part III change from baseline, Median","Week 48, Cohort 1",−2.00
same,"UWDRS Part III change from baseline, LSM","Week 48, Cohort 1",−2.68
same,"UWDRS Part III change from baseline, LSM Diff (TTM vs SoC)","Week 48, Cohort 2",0.05
same,"UWDRS Part III change from baseline, Mean","Week 48, Cohort 2",−3.10
same,"UWDRS Part III change from baseline, Median","Week 48, Cohort 2",−3.00
same,"UWDRS Part III change from baseline, LSM","Week 48, Cohort 2",1.43
same,"UWDRS Part III change from baseline, LSM Diff (TTM vs SoC)","Week 48, Overall",−0.33
same,"UWDRS Part III change from baseline, Mean","Week 48, Overall",2.91
same,"UWDRS Part III change from baseline, Median","Week 48, Overall",−2.00
same,"UWDRS Part III change from baseline, LSM","Week 48, Overall",−1.54
same,"UWDRS Part III (0-175) change from baseline, LSM",Week 48,−2.47
same,"UWDRS Part III (0-175) change from baseline, Mean",Week 48,−2.32
same,"UWDRS Part III functional subscale (0-10) change from baseline, LSM",Week 48,−0.230
same,"UWDRS Part III functional subscale (0-10) change from baseline, Mean",Week 48,−0.235
same,"UWDRS Part III-arising from chair (0-4) change from baseline, LSM",Week 48,0.0
same,"UWDRS Part III-arising from chair (0-4) change from baseline, Mean",Week 48,0.0
same,"UWDRS Part III-gait (0-4) change from baseline, LSM",Week 48,−0.26
same,"UWDRS Part III-gait (0-4) change from baseline, Mean",Week 48,−0.18
same,"UWDRS Part III-handwriting (0-4) change from baseline, LSM",Week 48,−0.1
same,"UWDRS Part III-handwriting (0-4) change from baseline, Mean",Week 48,−0.2
same,"UWDRS Part III-speech (0-4) change from baseline, LSM",Week 48,−0.1
same,"UWDRS Part III-speech (0-4) change from baseline, Mean",Week 48,−0.1
same,"UWDRS Part III (0-175) change from baseline, LSM",Week 72,−3.47
same,"UWDRS Part III (0-175) change from baseline, Mean",Week 72,−3.27
same,"UWDRS Part III functional subscale (0-10) change from baseline, LSM",Week 72,−0.253
same,"UWDRS Part III functional subscale (0-10) change from baseline, Mean",Week 72,−0.290
same,"UWDRS Part III-arising from chair (0-4) change from baseline, LSM",Week 72,−0.1
same,"UWDRS Part III-arising from chair (0-4) change from baseline, Mean",Week 72,−0.1
same,"UWDRS Part III-gait (0-4) change from baseline, LSM",Week 72,−0.15
same,"UWDRS Part III-gait (0-4) change from baseline, Mean",Week 72,−0.12
same,"UWDRS Part III-handwriting (0-4) change from baseline, LSM",Week 72,−0.2
same,"UWDRS Part III-handwriting (0-4) change from baseline, Mean",Week 72,−0.2
same,"UWDRS Part III-speech (0-4) change from baseline, LSM",Week 72,−0.1
same,"UWDRS Part III-speech (0-4) change from baseline, Mean",Week 72,−0.1
same,"UWDRS Part III (0-175) change from baseline, LSM",Week 96,−4.77
same,"UWDRS Part III (0-175) change from baseline, Mean",Week 96,−4.09
same,"UWDRS Part III functional subscale (0-10) change from baseline, LSM",Week 96,−0.386
same,"UWDRS Part III functional subscale (0-10) change from baseline, Mean",Week 96,−0.503
same,"UWDRS Part III-arising from chair (0-4) change from baseline, LSM",Week 96,−0.1
same,"UWDRS Part III-arising from chair (0-4) change from baseline, Mean",Week 96,−0.2
same,"UWDRS Part III-gait (0-4) change from baseline, LSM",Week 96,−0.12
same,"UWDRS Part III-gait (0-4) change from baseline, Mean",Week 96,−0.11
same,"UWDRS Part III-handwriting (0-4) change from baseline, LSM",Week 96,−0.3
same,"UWDRS Part III-handwriting (0-4) change from baseline, Mean",Week 96,−0.4
same,"UWDRS Part III-speech (0-4) change from baseline, LSM",Week 96,−0.2
same,"UWDRS Part III-speech (0-4) change from baseline, Mean",Week 96,−0.2
same,"UWDRS Part III (0-175) change from baseline, LSM",Week 120,−5.27
same,"UWDRS Part III (0-175) change from baseline, Mean",Week 120,−4.08
same,"UWDRS Part III functional subscale (0-10) change from baseline, LSM",Week 120,−0.392
same,"UWDRS Part III functional subscale (0-10) change from baseline, Mean",Week 120,−0.410
same,"UWDRS Part III-arising from chair (0-4) change from baseline, LSM",Week 120,−0.1
same,"UWDRS Part III-arising from chair (0-4) change from baseline, Mean",Week 120,−0.2
same,"UWDRS Part III-gait (0-4) change from baseline, LSM",Week 120,0.04
same,"UWDRS Part III-gait (0-4) change from baseline, Mean",Week 120,0.26
same,"UWDRS Part III-handwriting (0-4) change from baseline, LSM",Week 120,−0.3
same,"UWDRS Part III-handwriting (0-4) change from baseline, Mean",Week 120,−0.5
same,"UWDRS Part III-speech (0-4) change from baseline, LSM",Week 120,−0.2
same,"UWDRS Part III-speech (0-4) change from baseline, Mean",Week 120,−0.1
same,"UWDRS Part III (0-175) change from baseline, LSM",Week 144,−6.38
same,"UWDRS Part III (0-175) change from baseline, Mean",Week 144,−5.99
same,"UWDRS Part III functional subscale (0-10) change from baseline, LSM",Week 144,−0.489
same,"UWDRS Part III functional subscale (0-10) change from baseline, Mean",Week 144,−0.573
same,"UWDRS Part III-arising from chair (0-4) change from baseline, LSM",Week 144,−0.2
same,"UWDRS Part III-arising from chair (0-4) change from baseline, Mean",Week 144,−0.3
same,"UWDRS Part III-gait (0-4) change from baseline, LSM",Week 144,−0.25
same,"UWDRS Part III-gait (0-4) change from baseline, Mean",Week 144,0.00
same,"UWDRS Part III-handwriting (0-4) change from baseline, LSM",Week 144,−0.3
